Laboratory results: US9234000B2, “Benzylamine derivatives as inhibitors of plasma kallikrein” (KalVista Pharmaceuticals Limited, priority 2011, dated 2016)
≈ marks a conversion by molar mass, not a printed value.

What was measured:
physchem = conditions: for solubility in PO4 buffer: pH 7
Description: Determination of the Kinetic Solubility in Phosphate Buffer
After shaking for approximately 30 seconds the reduction in light transmission of these samples, at 650 nm, was measured (Molecular Devices Spectromax UV/visible spectrophotometer). A second measurement was taken at approximately 30 seconds later.

Human plasma kallikrein = Human plasma kallikrein (Homo sapiens (Human), UniProt P03952); test: Determination of the IC50 for plasma kallikrein; assay type: biochemical; conditions: fluorogenic substrate H-DPro-Phe-Arg-AFC, 37° C., read-out: IC50 (human PKal)
Summary of the method: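 Human plasma kallikrein incubated at 37° C with fluorogenic substrate H-DPro-Phe-Arg-AFC and varying compound concentrations. Initial reaction rate followed by absorbance change at 410 nm to give residual activity and IC50.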

Human KLK1 = Human KLK1 (Homo sapiens (Human), UniProt P06870); test: Determination of the IC50 for KLK1; assay type: biochemical; conditions: Human KLK1, 37° C., substrate H-DVal-Leu-Arg-AFC; Table 12
Summary of the method: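 IC50 values reflect residual human KLK1 activity, read as initial rate from optical absorbance change at 410 nm. Incubations ran at 37° C with H-DVal-Leu-Arg-AFC as substrate across a compound concentration series.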

Human KLK1, sequence (P06870 25-262): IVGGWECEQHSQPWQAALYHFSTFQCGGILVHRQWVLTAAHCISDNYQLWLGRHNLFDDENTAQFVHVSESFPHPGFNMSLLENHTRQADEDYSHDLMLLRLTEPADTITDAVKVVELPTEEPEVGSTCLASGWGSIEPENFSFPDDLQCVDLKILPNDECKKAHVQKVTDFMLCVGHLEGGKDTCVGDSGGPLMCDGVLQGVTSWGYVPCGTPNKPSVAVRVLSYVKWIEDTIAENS
Human plasma kallikrein, sequence (P03952 391-638): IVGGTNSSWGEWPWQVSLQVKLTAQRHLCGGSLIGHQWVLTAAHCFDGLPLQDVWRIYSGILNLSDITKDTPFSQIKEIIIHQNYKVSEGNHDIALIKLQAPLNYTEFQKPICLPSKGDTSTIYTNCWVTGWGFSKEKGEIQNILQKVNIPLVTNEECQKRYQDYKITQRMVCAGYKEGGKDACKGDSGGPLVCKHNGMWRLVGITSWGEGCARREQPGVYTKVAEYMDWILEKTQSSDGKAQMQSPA
Human plasma kallikrein, sequence (P03952 20-390 partner): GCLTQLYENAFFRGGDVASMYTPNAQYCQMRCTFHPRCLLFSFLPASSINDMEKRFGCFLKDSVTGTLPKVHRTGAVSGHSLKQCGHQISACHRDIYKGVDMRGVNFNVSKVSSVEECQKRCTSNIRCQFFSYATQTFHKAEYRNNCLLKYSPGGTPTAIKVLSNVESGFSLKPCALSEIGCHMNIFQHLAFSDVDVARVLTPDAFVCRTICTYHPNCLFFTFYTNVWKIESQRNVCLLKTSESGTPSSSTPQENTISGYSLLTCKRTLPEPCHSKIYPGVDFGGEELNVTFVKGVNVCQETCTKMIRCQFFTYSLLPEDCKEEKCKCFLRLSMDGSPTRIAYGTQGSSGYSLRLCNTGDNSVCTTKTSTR

SMILES	solubility in PO4 buffer (physchem)	IC50 (Human plasma kallikrein)	IC50 (Human KLK1)	solubility (physchem; pH 7, aqueous buffer, kinetic from dmso stock)
CCOc1ccc(C[C@@H](NC(=O)CC)C(=O)N[C@@H](Cc2ccccc2)C(=O)NCc2ccc(CN)cc2)cc1 [Example 1, (S)—N-(4-Aminomethyl-benzyl)-2-[(R)-3-(4-ethoxy-phenyl)-2-propionylamino-propionylamino]-3-phenyl-propionamide]	> 235 µM	89 nM	> 1000 nM	
NCc1ccc(CNC(=O)[C@H](Cc2ccccc2)NC(=O)[C@@H](CC2CCCCC2)NCC(=O)O)cc1 [Example 4, {(R)-1-[(S)-1-(4-Aminomethyl-benzylcarbamoyl)-2-phenyl-ethylcarbamoyl]-2-cyclohexyl-ethylamino}-acetic acid]	> 235 µM	230 nM	> 10000 nM	
CCOc1ccc(C[C@@H](N)C(=O)N[C@@H](Cc2ccccc2)C(=O)NCc2ccc(CN)cc2)cc1 [Example 5, (R)-2-Amino-N-[(S)-1-(4-aminomethyl-benzylcarbamoyl)-2-phenyl-ethyl]-3-(4-ethoxy-phenyl)-propionamide]	> 235 µM	460 nM	160 nM	
CCOc1ccc(C[C@@H](N)C(=O)N[C@@H](Cc2ccccc2)C(=O)NCc2ccc(CN)c(F)c2)cc1 [Example 6, (R)-2-Amino-N-[(S)-1-(4-aminomethyl-3-fluoro-benzylcarbamoyl)-2-phenyl-ethyl]-3-(4-ethoxy-phenyl)-propionamide]	> 235 µM	1000 nM	> 1000 nM	
CN(C)[C@H](CC1CCCCC1)C(=O)N[C@@H](Cc1ccccc1)C(=O)NCc1ccc(CN)cc1 [Example 9, (R)-N-[(S)-1-(4-Aminomethyl-benzylcarbamoyl)-2-phenyl-ethyl]-3-cyclohexyl-2-dimethylamino-propionamide]	> 235 µM	2000 nM	> 1000 nM	
CCOc1ccc(C[C@@H](N)C(=O)N[C@@H](Cc2ccc(Cl)c(Cl)c2)C(=O)NCc2ccc(CN)cc2)cc1 [Example 14, (R)-2-Amino-N-[(S)-1-(4-aminomethyl-benzylcarbamoyl)-2-(3,4-dichloro-phenyl)-ethyl]-3-(4-ethoxy-phenyl)-propionamide]	> 235 µM	400 nM	3700 nM	
CCOc1ccc(C[C@@H](NS(=O)(=O)c2ccccc2)C(=O)N[C@@H](Cc2ccccc2)C(=O)NCc2ccc(CN)cc2)cc1 [Example 15, (R)-N-[(S)-1-(4-Aminomethyl-benzylcarbamoyl)-2-phenyl-ethyl]-2-benzenesulfonylamino-3-(4-ethoxy-phenyl)-propionamide]	> 235 µM	470 nM	2200 nM	
CCOc1ccc(C[C@@H](NCC(=O)O)C(=O)N[C@@H](Cc2ccccc2)C(=O)NCc2ccc(CN)cc2)cc1 [Example 17, [(R)-1-[(S)-1-(4-Aminomethyl-benzylcarbamoyl)-2-phenyl-ethylcarbamoyl]-2-(4-ethoxy-phenyl)-ethylamino]-acetic acid]	> 235 µM	5800 nM	> 10000 nM	
NCc1ccc(CNC(=O)[C@H](Cc2ccc(Cl)c(Cl)c2)NC(=O)[C@H](N)Cc2ccc(C(F)(F)F)cc2)cc1 [Example 18, (R)-2-Amino-N-[(S)-1-(4-aminomethyl-benzylcarbamoyl)-2-(3,4-dichloro-phenyl)-ethyl]-3-(4-trifluoromethyl-phenyl)-propionamide]	> 235 µM	8800 nM	1600 nM	
NCc1ccc(CNC(=O)[C@H](Cc2ccc(Cl)c(Cl)c2)NC(=O)[C@H](N)CC2CCCCC2)cc1 [Example 20, (R)-2-Amino-N-[(S)-1-(4-aminomethyl-benzylcarbamoyl)-2-(3,4-dichloro-phenyl)-ethyl]-3-cyclohexyl-propionamide]	> 235 µM	730 nM	3700 nM	
CCC(=O)N[C@H](CC1CCCCC1)C(=O)N[C@@H](Cc1ccc(Cl)c(Cl)c1)C(=O)NCc1ccc(CN)cc1 [Example 21, (R)-N-[(S)-1-(4-Aminomethyl-benzylcarbamoyl)-2-(3,4-dichloro-phenyl)-ethyl]-3-cyclohexyl-2-propionylamino-propionamide]		5100 nM	10000 nM	12 µM (≈ 6.74 µg/mL)
CCOc1ccc(C[C@@H](NC(=O)CC)C(=O)N[C@@H](Cc2ccccc2)C(=O)N(C)Cc2ccc(CN)cc2)cc1 [Example 24, (S)-N-(4-Aminomethyl-benzyl)-2-[(R)-3-(4-ethoxy-phenyl)-2-propionylamino-propionylamino]-N-methyl-3-phenyl-propionamide]	> 235 µM	450 nM	> 10000 nM	
CCOc1ccc(C[C@@H](N)C(=O)N(C)[C@@H](Cc2ccccc2)C(=O)NCc2ccc(CN)cc2)cc1 [Example 25, (R)-2-Amino-N-[(S)-1-(4-aminomethyl-benzylcarbamoyl)-2-phenyl-ethyl]-3-(4-ethoxy-phenyl)-N-methyl-propionamide]	> 235 µM	340 nM	6300 nM	
CCOc1ccc(C[C@@H](NC(=O)CC)C(=O)N(C)[C@@H](Cc2ccccc2)C(=O)NCc2ccc(CN)cc2)cc1 [Example 26, (S)-N-(4-Aminomethyl-benzyl)-2-{[(R)-3-(4-ethoxy-phenyl)-2-propionylamino-propionyl]-methyl-amino}-3-phenyl-propionamide]	> 235 µM	81 nM	> 10000 nM	
CCOc1ccc(C[C@@H](NC)C(=O)N[C@@H](Cc2ccccc2)C(=O)NCc2ccc(CN)cc2)cc1 [Example 27, (R)-N-[(S)-1-(4-Aminomethyl-benzylcarbamoyl)-2-phenyl-ethyl]-3-(4-ethoxy-phenyl)-2-methylamino-propionamide]	> 235 µM	1300 nM	4000 nM	
CN(CC(=O)O)[C@H](CC1CCCCC1)C(=O)N[C@@H](Cc1ccccc1)C(=O)NCc1ccc(CN)cc1 [Example 29, ({(R)-1-[(S)-1-(4-Aminomethyl-benzylcarbamoyl)-2-phenyl-ethylcarbamoyl]-2-cyclohexyl-ethyl}-methyl-amino)-acetic acid]	> 235 µM	300 nM	> 10000 nM	
CN(C(=O)[C@@H](CC1CCCCC1)NCC(=O)O)[C@@H](Cc1ccccc1)C(=O)NCc1ccc(CN)cc1 [Example 30, ((R)-1-{[(S)-1-(4-Aminomethyl-benzylcarbamoyl)-2-phenyl-ethyl]-methyl-carbamoyl}-2-cyclohexyl-ethylamino)-acetic acid]	> 235 µM	580 nM	> 10000 nM	
CCOc1ccc(C[C@H](C(=O)N[C@@H](Cc2ccccc2)C(=O)NCc2ccc(CN)cc2)N(C)C(=O)CC)cc1 [Example 31, (S)-N-(4-Aminomethyl-benzyl)-2-[(R)-3-(4-ethoxy-phenyl)-2-(methyl-propionyl-amino)-propionylamino]-3-phenyl-propionamide]	> 235 µM	4300 nM	9600 nM	
CCOc1ccc(C[C@@H](NC(=O)CC)C(=O)N(C)[C@@H](Cc2ccccc2)C(=O)NCc2ccc(CN)c(F)c2)cc1 [Example 32, (S)-N-(4-Aminomethyl-3-fluoro-benzyl)-2-{[(R)-3-(4-ethoxy-phenyl)-2-propionylamino-propionyl]-methyl-amino}-3-phenyl-propionamide]	> 235 µM	200 nM	> 10000 nM	
CN[C@H](CC1CCCCC1)C(=O)N[C@@H](Cc1ccccc1)C(=O)NCc1ccc(CN)cc1 [Example 33, (R)-N-[(S)-1-(4-Aminomethyl-benzylcarbamoyl)-2-phenyl-ethyl]-3-cyclohexyl-2-methylamino-propionamide]	> 235 µM	1100 nM	> 10000 nM	
CN(C(=O)[C@@H](CC1CCCCC1)NCC(=O)O)[C@@H](Cc1ccccc1)C(=O)NCc1ccc(CN)c(F)c1 [Example 34, ((R)-1-{[(S)-1-(4-Aminomethyl-3-fluoro-benzylcarbamoyl)-2-phenyl-ethyl]-methyl-carbamoyl}-2-cyclohexyl-ethylamino)-acetic acid]	> 235 µM	1400 nM	7700 nM	
CCCN[C@H](Cc1ccc(OCC)cc1)C(=O)N(C)[C@@H](Cc1ccccc1)C(=O)NCc1ccc(CN)cc1 [Example 35, (R)-N-[(S)-1-(4-Aminomethyl-benzylcarbamoyl)-2-phenyl-ethyl]-3-(4-ethoxy-phenyl)-N-methyl-2-propylamino-propionamide]	> 235 µM	2000 nM	> 10000 nM	
CN(Cc1ccc(CN)cc1)C(=O)[C@H](Cc1ccccc1)NC(=O)[C@@H](CC1CCCCC1)NCC(=O)O [Example 36, ((R)-1-{(S)-1-[(4-Aminomethyl-benzyl)-methyl-carbamoyl]-2-phenyl-ethylcarbamoyl}-2-cyclohexyl-ethylamino)-acetic acid]	> 235 µM	8200 nM	> 10000 nM	
CCCN[C@H](CC1CCCCC1)C(=O)N[C@@H](Cc1ccccc1)C(=O)NCc1ccc(CN)cc1 [Example 37, (R)-N-[(S)-1-(4-Aminomethyl-benzylcarbamoyl)-2-phenyl-ethyl]-3-cyclohexyl-2-propylamino-propionamide]	> 235 µM	910 nM	> 10000 nM	
CCOc1ccc(C[C@@H](NC(C)=O)C(=O)N(C)[C@@H](Cc2ccccc2)C(=O)NCc2ccc(CN)cc2)cc1 [Example 39, (R)-2-Acetylamino-N-[(S)-1-(4-aminomethyl-benzylcarbamoyl)-2-phenyl-ethyl]-3-(4-ethoxy-phenyl)-N-methyl-propionamide]	> 235 µM	310 nM	> 10000 nM	
